From patent publication US20060122198A1, “Antiepileptic agent” (Kyowa Hakko Kogyo Co., Ltd., priority 2003, published 2006) come the findings set out here.

Series [1] deals with convulsion induced by administration of reserpine and electric stimulation. Description: Antiepileptic action: tonic extended convulsion induced by reserpine and electric stimulation. It counts as in vivo. To be noted: male ddY mice treated with reserpine 5 mg/kg i.p.; test compound 30 mg/kg orally; electric stimulation 1,000 V, 50 mA, 0.2 second after one hour; compared with reserpine + solvent group, p<0.01 (Aspine-Welch test). On the procedure: Convulsion induced by administration of reserpine and electric stimulation has been known as an effective model for epilepsy [European Journal of Pharmacology, 1994, volume 23, page 260]. Male mice (body weight: 15 to 17 g; Nippon SLC, Hamamatsu) of ddY strain of four weeks age were subjected to a preliminary breeding and 65 mice where body weight became 22.4 to 26.0 g were used for the experiment. Fifteen mice among the above were used as a non-treated group. Reserpine (Apoplon Injection 1 mg; Daiichi Seiyaku) diluted with distilled water for injection (Otsuka Seiyaku, Naruto) was intraperitoneally administered (treatment with reserpine) at the dose of 5 mg/kg to each of the remaining 50 mice and the experiment was carried out after 18 to 24 hours from the administration. Among the mice subjected to the treatment with reserpine, two groups each comprising ten mice were randomly selected and used as a group administered with a solvent and a group administered with the test compound. The test compound was used as a suspension of a 0.5% MC solution [distilled water for injection containing 0.5% methyl cellulose 400 cP (Wako Pure Chemicals)] and Compound (I) was orally administered at the dose of 30 mg/kg (10 mL/kg in terms of volume) to the mice treated with reserpine (a group administered with the test compound). […]

Another series deals with male mice of dd-strain. To be noted: mouse, in vivo, po, 7 days. The protocol:
A test compound was orally administered to male mice (body weight: 20±1 g) of dd-strain which comprises three mice per group. State of death after 7 days from the administration was observed and the minimum lethal dose (MLD) was determined.

Where only a bound is given, the exact number is not on record here.

Consider `COc1cc(/C=C/c2nc3c(c(=O)n(C)c(=O)n3C)n2C)cc(OC)c1OC` [Compound 1, (E)-8-(3,4,5-Trimethoxystyryl)caffeine], for which the “duration of convulsion (tonic extended convulsion)” value in series [1] is recorded as “significant shortening action”. Moreover, the “minimum lethal dose (MLD)” value with male mice of dd-strain was > 1,000 mg/kg. In the case of `CCCn1c(=O)c2c(nc(/C=C/c3ccc(OC)c(OC)c3)n2C)n(CCC)c1=O` [Compound 3, (E)-8-(3,4-Dimethoxystyryl)-7-methyl-1,3-dipropylxanthine], the “duration of convulsion (tonic extended convulsion)” value in series [1] is “significant shortening action”.
